{
  "source": "paper PMC12023841",
  "about": "“Unlocking the Gates: A Novel Diagnostic Molecule for Quantifying Efflux Levels in Gram‐Positive Bacteria” (Advanced Healthcare Materials, 2025)",
  "origin": "cited, not measured here",
  "tested_on": "S. aureus strains",
  "conditions": "cited from earlier work",
  "note": "Read-outs that look alike come from different tables or passages of the source.",
  "data": [
    {"molecule": "CC[n+]1c(-c2ccccc2)c2cc(N)ccc2c2ccc(N)cc21", "note": "[EtBrCW, Ethidium bromide]", "values": [
      {"measurement": "Efflux detection method EtBrCW", "setting": "strain ATCC25923, ref [4]", "result": "Negative"},
      {"measurement": "Efflux detection method EtBrCW", "setting": "strain ATCC25923_EtBr, ref [4]", "result": "Positive (isolates were considered positive if they exhibited fluorescence at the highest EtBr concentration tested (> 2.5 mg/L))"},
      {"measurement": "Efflux detection method EtBrCW", "setting": "strain BIOS-H1, ref [7]", "result": "Negative"},
      {"measurement": "Efflux detection method EtBrCW", "setting": "strain BIOS-H2, ref [7]", "result": "Negative"},
      {"measurement": "Efflux detection method EtBrCW", "setting": "strain BIOS-H3, ref [7]", "result": "Negative"},
      {"measurement": "Efflux detection method EtBrCW", "setting": "strain BIOS-H5, ref [7]", "result": "Negative"},
      {"measurement": "Efflux detection method EtBrCW", "setting": "strain BIOS-H6, ref [7]", "result": "Negative"},
      {"measurement": "Efflux detection method EtBrCW", "setting": "strain BIOS-H12, ref [7]", "result": "Negative"},
      {"measurement": "Efflux detection method EtBrCW", "setting": "strain BIOS-H13, ref [7]", "result": "Negative"},
      {"measurement": "Efflux detection method EtBrCW", "setting": "strain BIOS-H17, ref [7]", "result": "Negative"},
      {"measurement": "Efflux detection method EtBrCW", "setting": "strain BIOS-H20, ref [7]", "result": "Negative"},
      {"measurement": "Efflux detection method EtBrCW", "setting": "strain BIOS-H21, ref [7]", "result": "Negative"},
      {"measurement": "Efflux detection method EtBrCW", "setting": "strain BIOS-H22, ref [7]", "result": "Negative"},
      {"measurement": "Efflux detection method EtBrCW", "setting": "strain BIOS-H25, ref [7]", "result": "Negative"},
      {"measurement": "Efflux detection method EtBrCW", "setting": "strain BIOS-H28, ref [7]", "result": "Negative"},
      {"measurement": "Efflux detection method EtBrCW", "setting": "strain BIOS-H29, ref [7]", "result": "Negative"},
      {"measurement": "Efflux detection method EtBrCW", "setting": "strain BIOS-H30, ref [7]", "result": "Negative"},
      {"measurement": "Efflux detection method EtBrCW", "setting": "strain BIOS-H32, ref [7]", "result": "Negative"},
      {"measurement": "Efflux detection method EtBrCW", "setting": "strain BIOS-V21, ref [8]", "result": "Negative"},
      {"measurement": "Efflux detection method EtBrCW", "setting": "strain BIOS-V31, ref [8]", "result": "Negative"},
      {"measurement": "Efflux detection method EtBrCW", "setting": "strain BIOS-V60, ref [8]", "result": "Negative"},
      {"measurement": "Efflux detection method EtBrCW", "setting": "strain BIOS-V61, ref [8]", "result": "Negative"},
      {"measurement": "Efflux detection method EtBrCW", "setting": "strain BIOS-V62, ref [8]", "result": "Negative"},
      {"measurement": "Efflux detection method EtBrCW", "setting": "strain BIOS-V74, ref [8]", "result": "Negative"},
      {"measurement": "Efflux detection method EtBrCW", "setting": "strain BIOS-V75, ref [8]", "result": "Negative"},
      {"measurement": "Efflux detection method EtBrCW", "setting": "strain BIOS-V85, ref [8]", "result": "Negative"},
      {"measurement": "Efflux detection method EtBrCW", "setting": "strain BIOS-V118, ref [8]", "result": "Negative"},
      {"measurement": "Efflux detection method EtBrCW", "setting": "strain BIOS-V128, ref [8]", "result": "Negative"},
      {"measurement": "Efflux detection method EtBrCW", "setting": "strain BIOS-V147, ref [8]", "result": "Negative"},
      {"measurement": "Efflux detection method EtBrCW", "setting": "strain BIOS-V151, ref [8]", "result": "Negative"},
      {"measurement": "Efflux detection method EtBrCW", "setting": "strain BIOS-V156, ref [8]", "result": "Negative"},
      {"measurement": "Efflux detection method EtBrCW", "setting": "strain BIOS-V157, ref [8]", "result": "Negative"},
      {"measurement": "Efflux detection method EtBrCW", "setting": "strain BIOS-V158, ref [8]", "result": "Negative"},
      {"measurement": "Efflux detection method EtBrCW", "setting": "strain BIOS-V203, ref [8]", "result": "Negative"},
      {"measurement": "Efflux detection method EtBrCW", "setting": "strain BIOS-V245, ref [8]", "result": "Negative"},
      {"measurement": "Efflux detection method EtBrCW", "setting": "strain BIOS-V250, ref [8]", "result": "Negative"},
      {"measurement": "Efflux detection method EtBrCW", "setting": "strain BIOS-V257, ref [8]", "result": "Negative"},
      {"measurement": "Efflux detection method EtBrCW", "setting": "strain BIOS-V279, ref [8]", "result": "Negative"},
      {"measurement": "Efflux detection method EtBrCW", "setting": "strain BIOS-V295, ref [8]", "result": "Negative"},
      {"measurement": "Efflux detection method EtBrCW", "setting": "strain SA-1199, ref [2]", "result": "Negative"},
      {"measurement": "Efflux detection method EtBrCW", "setting": "strain SA-1199B, ref [2]", "result": "Positive (isolates were considered positive if they exhibited fluorescence at the highest EtBr concentration tested (> 2.5 mg/L))"},
      {"measurement": "Efflux detection method EtBrCW", "setting": "strain SA-K1748, ref [3]", "result": "Positive (isolates were considered positive if they exhibited fluorescence at the highest EtBr concentration tested (> 2.5 mg/L))"},
      {"measurement": "Efflux detection method EtBrCW", "setting": "strain SA-K1758, ref [2]", "result": "Negative"},
      {"measurement": "Efflux detection method EtBrCW", "setting": "strain SM 1, ref [6]", "result": "Positive (isolates were considered positive if they exhibited fluorescence at the highest EtBr concentration tested (> 2.5 mg/L))"},
      {"measurement": "Efflux detection method EtBrCW", "setting": "strain SM 2, ref [6]", "result": "Negative^* (Isolates marked with (*) displayed fluorescence at intermediate EtBr concentrations (1–2 mg/L))"},
      {"measurement": "Efflux detection method EtBrCW", "setting": "strain SM 3, ref [6]", "result": "Negative^* (Isolates marked with (*) displayed fluorescence at intermediate EtBr concentrations (1–2 mg/L))"},
      {"measurement": "Efflux detection method EtBrCW", "setting": "strain SM 4, ref [6]", "result": "Negative"},
      {"measurement": "Efflux detection method EtBrCW", "setting": "strain SM 5, ref [6]", "result": "Negative"},
      {"measurement": "Efflux detection method EtBrCW", "setting": "strain SM 6, ref [6]", "result": "Negative"},
      {"measurement": "Efflux detection method EtBrCW", "setting": "strain SM 7, ref [6]", "result": "Negative"},
      {"measurement": "Efflux detection method EtBrCW", "setting": "strain SM 8, ref [6]", "result": "Negative^* (Isolates marked with (*) displayed fluorescence at intermediate EtBr concentrations (1–2 mg/L))"}
    ]}
  ]
}
